Key:
[1] = tested on: A253 (Head and Neck Carcinoma); assay: Bliss excess, mean over the matrix (fraction); higher = more synergy
Method in brief: (§1)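 Cell lines in DMEM/F12 or RPMI with 10% FBS were plated in 1536-well plates, held 24 hours at 37°C, 5% CO2, then given two-drug dose matrices for 72 hours (DMSO typically 0.2%). Viability was read by CellTiter-Glo 2.0 luminescence and scaled as inhibition from 0 (vehicle wells) to 1 (blank wells). Combination Emax is the second-highest inhibition in the matrix; Bliss excess is observed combination effect minus expected EA + EB − EA·EB, EA and EB being single-agent effects.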

[2] = tested on: COLO-792 (Melanoma); assay: as above
Method in brief: as §1

[3] = tested on: GA-10 (Burkitt's Lymphoma); assay: as above
Method in brief: as §1

[4] = tested on: HCC1395 (Breast Carcinoma); assay: as above
Method in brief: as §1

[5] = tested on: HCC70 (Breast Carcinoma); assay: as above
Method in brief: as §1

[6] = tested on: HT55 (Colorectal Carcinoma); assay: as above
Method in brief: as §1

[7] = tested on: MKN1 (Gastric Carcinoma); assay: as above
Method in brief: as §1

[8] = tested on: NCI-H1703 (Squamous Cell Lung Carcinoma); assay: as above
Method in brief: as §1

[9] = tested on: NCI-H441 (Lung Adenocarcinoma); assay: as above
Method in brief: as §1

[10] = tested on: NCI-H716 (Colorectal Carcinoma); assay: as above
Method in brief: as §1

[11] = tested on: NCI-H841 (Small Cell Lung Carcinoma); assay: as above
Method in brief: as §1

[12] = tested on: MKN1 (Gastric Carcinoma); assay: combination Emax (second highest fraction inhibited in the dose matrix, 72 h); higher = more inhibition; extreme values may be limits of the assay
Method in brief: as §1

[13] = tested on: NCI-H841 (Small Cell Lung Carcinoma); assay: as above
Method in brief: as §1

[14] = tested on: UACC-812 (Breast Carcinoma); assay: Bliss excess, mean over the matrix (fraction); higher = more synergy
Method in brief: as §1
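Wherever Bliss excess, mean over the matrix is given: after 72 h of two-drug dosing.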

Compound	Bliss excess [1]	Bliss excess [2]	Bliss excess [3]	Bliss excess [4]	Bliss excess [5]	Bliss excess [6]	Bliss excess [7]	Bliss excess [8]	Bliss excess [9]	Bliss excess [10]	Bliss excess [11]	combination Emax [12]	combination Emax [13]	Bliss excess [14]
NC1(C(=O)N[C@@H](CCO)c2ccc(Cl)cc2)CCN(c2ncnc3[nH]ccc23)CC1 [Capivasertib] + CC(C)n1c(=O)n(C)c2cnc3cc(F)c(-c4ccc(OCCCN5CCCCC5)nc4)cc3c21 [AZD1390] (first compound max 10 µM, 7x7, partner max 0.3 µM)	-0.0597	-0.0755	-0.028	0.0154	-0.023	-0.0432	-0.0379	-0.0132	-0.0711	-0.0701	-0.0909	0.39	0.273	–
CN(C)CCCOc1ccc(-c2ccc3ncc4c(c3c2)n(C2CCOCC2)c(=O)n4C)cn1 [AZD0156] + O=C(c1cc(Cc2n[nH]c(=O)c3ccccc23)ccc1F)N1CCN(C(=O)C2CC2)CC1 [Olaparib] (first compound max 3 µM, partner max 3 µM)	0.0536	0.0844	0.131	0.0515	-0.0548	0.0254	0.0242	0.0821	-0.0003	0.002	-0.0483	0.307	0.208	-0.113
NC1(C(=O)N[C@@H](CCO)c2ccc(Cl)cc2)CCN(c2ncnc3[nH]ccc23)CC1 [Capivasertib] + Cn1cnc2c(F)c(Nc3ccc(Br)cc3Cl)c(C(=O)NOCCO)cc21 [Selumetinib] (first compound max 10 µM, 7x7, partner max 10 µM)	0.0591	0.0139	-0.0442	0.033	0.18	-0.0042	0.081	0.0358	-0.0041	0.119	0.0115	0.552	0.308	–
CS(=O)(=O)CCNCc1ccc(-c2ccc3ncnc(Nc4ccc(OCc5cccc(F)c5)c(Cl)c4)c3c2)o1 [Lapatinib] + C[C@@H](Oc1cc(-c2cnn(C3CCNCC3)c2)cnc1N)c1c(Cl)ccc(F)c1Cl [Crizotinib] (first compound max 10 µM, 7x7, partner max 10 µM)	-0.0221	-0.0237	-0.0218	-0.0724	-0.0208	-0.0412	0.0038	-0.0733	-0.0412	-0.0217	-0.0378	0.922	0.356	–
COc1nnc2ccc(N3CCC(c4ccc(OCCN5CCN(C)C(=O)[C@H]5C)cc4)CC3)nn12 [AZD5153] + C=CCn1c(=O)c2cnc(Nc3ccc(N4CCN(C)CC4)cc3)nc2n1-c1cccc(C(C)(C)O)n1 [AZD1775] (first compound max 1 µM, partner max 1 µM)	-0.0328	0.0823	-0.0367	-0.113	-0.0339	-0.0112	0.0363	0.0052	-0.0322	-0.0734	-0.0299	0.926	0.503	-0.0066
NC1(C(=O)N[C@@H](CCO)c2ccc(Cl)cc2)CCN(c2ncnc3[nH]ccc23)CC1 [Capivasertib] + COc1nnc2ccc(N3CCC(c4ccc(OCCN5CCN(C)C(=O)[C@H]5C)cc4)CC3)nn12 [AZD5153] (first compound max 10 µM, 7x7, partner max 1 µM)	0.125	0.133	-0.0148	-0.0381	0.0422	-0.0408	0.0481	0.0357	-0.006	-0.0181	-0.0002	0.782	0.405	–
COc1nnc2ccc(N3CCC(c4ccc(OCCN5CCN(C)C(=O)[C@H]5C)cc4)CC3)nn12 [AZD5153] + C[C@@H]1COCCN1C2=NC(=NC(=C2)C3(CC3)[S@](=N)(=O)C)C4=C5C=CNC5=NC=C4 [AZD6738] (first compound max 1 µM, 7x7, partner max 10 µM)	0.0315	0.0774	-0.0177	-0.0241	0.015	0.0392	0.0483	0.02	0.0192	-0.0312	0.0202	0.936	0.73	0.0371
COc1nnc2ccc(N3CCC(c4ccc(OCCN5CCN(C)C(=O)[C@H]5C)cc4)CC3)nn12 [AZD5153] + Cn1cnc2c(F)c(Nc3ccc(Br)cc3Cl)c(C(=O)NOCCO)cc21 [Selumetinib] (first compound max 1 µM, 7x7, partner max 10 µM)	0.0009	-0.055	-0.0813	-0.024	0.0982	0.0584	-0.0081	-0.0065	-0.0338	0.016	-0.0121	0.619	0.328	0.0089
C=CCn1c(=O)c2cnc(Nc3ccc(N4CCN(C)CC4)cc3)nc2n1-c1cccc(C(C)(C)O)n1 [AZD1775] + C1CN(CCC1(C(=O)N[C@@H](CCO)C2=CC=C(C=C2)Cl)N)C3=NC=NC4=C3C=CN4 [Capivasertib] (first compound max 3 µM, partner max 3 µM)	0.0248	0.0596	0.0431	-0.0085	-0.0235	-0.125	-0.0236	0.0131	-0.0427	-0.034	-0.0788	0.821	0.676	-0.0007
COc1nnc2ccc(N3CCC(c4ccc(OCCN5CCN(C)C(=O)[C@H]5C)cc4)CC3)nn12 [AZD5153] + Cc1c2c(nn1C)CSCc1cc(n(C)n1)CSc1cc(c3ccccc3c1)OCCCc1c(C(=O)O)n(C)c3c-2c(Cl)ccc13 [AZD5991] (first compound max 1 µM, 7x7, partner max 1 µM)	0.0071	0.0196	-0.0598	-0.0112	0.0638	-0.0445	0.0194	-0.0186	-0.0179	0.0076	-0.0119	0.866	0.565	0.0365
CC(=O)c1c(C)c2cnc(Nc3ccc(N4CCNCC4)cn3)nc2n(C2CCCC2)c1=O [Palbociclib] + Cc1c2c(nn1C)CSCc1cc(n(C)n1)CSc1cc(c3ccccc3c1)OCCCc1c(C(=O)O)n(C)c3c-2c(Cl)ccc13 [AZD5991] (first compound max 10 µM, 7x7, partner max 1 µM)	-0.134	-0.105	-0.0211	-0.0403	-0.0171	0.0046	-0.0238	-0.0636	-0.0362	-0.0343	-0.0265	0.313	0.289	–
COc1nnc2ccc(N3CCC(c4ccc(OCCN5CCN(C)C(=O)[C@H]5C)cc4)CC3)nn12 [AZD5153] + CCN(CCO)CCCOc1ccc2c(Nc3cc(CC(=O)Nc4cccc(F)c4)[nH]n3)ncnc2c1 [AZD2811] (first compound max 1 µM, 7x7, partner max 1 µM)	-0.0153	-0.0406	-0.122	-0.0005	-0.0734	-0.0479	-0.0033	-0.038	-0.0236	-0.0316	0.0001	0.807	0.428	-0.0742
NC1(C(=O)N[C@@H](CCO)c2ccc(Cl)cc2)CCN(c2ncnc3[nH]ccc23)CC1 [Capivasertib] + CCN(CCO)CCCOc1ccc2c(Nc3cc(CC(=O)Nc4cccc(F)c4)[nH]n3)ncnc2c1 [AZD2811] (first compound max 10 µM, 7x7, partner max 1 µM)	-0.0346	0.0486	-0.111	0.001	-0.0506	-0.0412	-0.0067	-0.0237	-0.0425	-0.0402	-0.0415	0.531	0.426	–
Cn1cnc2c(F)c(Nc3ccc(Br)cc3Cl)c(C(=O)NOCCO)cc21 [Selumetinib] + CC(C)n1c(=O)n(C)c2cnc3cc(F)c(-c4ccc(OCCCN5CCCCC5)nc4)cc3c21 [AZD1390] (first compound max 10 µM, 7x7, partner max 0.3 µM)	-0.0504	-0.0088	-0.0227	-0.0327	0.0225	-0.0388	-0.0173	-0.0158	-0.0394	0.0093	-0.0529	0.182	0.0728	-0.0436
CC(=O)c1c(C)c2cnc(Nc3ccc(N4CCNCC4)cn3)nc2n(C2CCCC2)c1=O [Palbociclib] + Cn1cnc2c(F)c(Nc3ccc(Br)cc3Cl)c(C(=O)NOCCO)cc21 [Selumetinib] (first compound max 10 µM, 7x7, partner max 10 µM)	-0.0864	-0.0127	-0.0193	-0.0529	0.055	0.0782	-0.0001	0.0303	0.0506	-0.0843	-0.0352	0.332	0.16	–
CC(=O)c1c(C)c2cnc(Nc3ccc(N4CCNCC4)cn3)nc2n(C2CCCC2)c1=O [Palbociclib] + CC1(C)CCC(CN2CCN(c3ccc(C(=O)NS(=O)(=O)c4ccc(NCC5CCOCC5)c([N+](=O)[O-])c4)c(Oc4cnc5[nH]ccc5c4)c3)CC2)=C(c2ccc(Cl)cc2)C1 [Venetoclax] (first compound max 10 µM, 7x7, partner max 1 µM)	-0.0555	0.0153	-0.0895	-0.0472	-0.0356	0.0107	-0.0394	0.0004	-0.0237	0.0345	-0.0463	0.249	0.0903	–
NC1(C(=O)N[C@@H](CCO)c2ccc(Cl)cc2)CCN(c2ncnc3[nH]ccc23)CC1 [Capivasertib] + CC(=O)c1c(C)c2cnc(Nc3ccc(N4CCNCC4)cn3)nc2n(C2CCCC2)c1=O [Palbociclib] (first compound max 10 µM, 7x7, partner max 10 µM)	-0.0709	-0.0643	-0.0029	0.0116	0.0198	-0.0186	0.0106	0.0189	-0.0304	-0.0018	-0.0365	0.463	0.293	–
NC1(C(=O)N[C@@H](CCO)c2ccc(Cl)cc2)CCN(c2ncnc3[nH]ccc23)CC1 [Capivasertib] + C[C@@H]1COCCN1C2=NC(=NC(=C2)C3(CC3)[S@](=N)(=O)C)C4=C5C=CNC5=NC=C4 [AZD6738] (first compound max 10 µM, 7x7, partner max 10 µM)	-0.0163	0.0487	-0.0303	-0.0687	-0.0586	-0.0531	-0.0639	-0.0292	-0.0011	-0.0317	-0.0622	0.807	0.457	–

Reference: the supplement of paper PMC11061612
